Measured values as given in US20230172205A1 (priority 2020, published 2023).

Tests used:
[1] = test system: Phakopsora pachyrhizi, strain with amino acid substitution F129L in the mitochondrial cytochrome b protein; test: Protective control of soybean rust on soybeans (PHAKPA P2); format: in vivo; settings: for PHAKPA (F129L) Disease level (%), P2 at 16 ppm: Table C4, untreated >90
[2] = test system: Phakopsora pachyrhizi, strain with amino acid substitution F129L in the mitochondrial cytochrome b protein; test: Protective control of soybean rust on soybeans (PHAKPA P6); format: in vivo
[3] = test system: Pyricularia oryzae; test: microbe, parasite or virus in culture; format: cell-based; settings: 0.016 ppm
[4] = Table 1, protective P2, 4 ppm, F129L strain
[5] = Table 1, protective P2, 16 ppm, F129L strain
[6] = Table 1, protective P6, 4 ppm, F129L strain
[7] = Table 1, protective P6, 16 ppm, F129L strain
[8] = protective P2, 4 ppm, soybean rust F129L strain
[9] = protective P2, 16 ppm, soybean rust F129L strain
[10] = Table C4, 16 ppm, untreated >85
[11] = protective P6, 4 ppm, soybean rust F129L strain
[12] = protective P6, 16 ppm, soybean rust F129L strain

Compound: CNC(=O)/C(=N/OC)c1cccc(C)c1CO/N=C(\C)c1ccc(Cl)c(F)c1OC(F)(F)F [compound 449]
- % PHAKPA (F129L) Disease level, P2 at 4 ppm [1, 4]: 33%
- % PHAKPA (F129L) Disease level, P2 at 16 ppm [1, 5]: 10%
- % PHAKPA (F129L) Disease level, P6 at 4 ppm [2, 6]: 57%
- % PHAKPA (F129L) Disease level, P6 at 16 ppm [2, 7]: 9%

Compound: CO/C=C(/C(=O)OC)c1cccc(C)c1CO/N=C(\C)c1cccc(C(F)(F)F)c1 [Ex. 231]
- % PHAKPA (F129L) Disease level, P2 at 4 ppm [1, 4]: 0%
- % PHAKPA (F129L) Disease level, P2 at 16 ppm [1, 5]: 0%
- PHAKPA (F129L) Disease level (%) P2 at 4 ppm ([1]; Table C2, protective, inoculation 2 days after spraying, 4 ppm, % diseased leaf area on soybean, untreated 100): 0%
- % PHAKPA (F129L) Disease level, P6 at 4 ppm [2, 6]: 2%
- % PHAKPA (F129L) Disease level, P6 at 16 ppm [2, 7]: 0%
- PHAKPA (F129L) Disease level (%) P6 at 4 ppm ([2]; Table C2, protective, inoculation six days after spraying, 4 ppm, % diseased leaf area on soybean, untreated 99): 2%

Compound: CO/C=C(/C(=O)OC)c1cccc(C)c1CO/N=C(\C)c1ccc(OC(F)(F)F)cc1Cl [compound 463]
- % PHAKPA (F129L) Disease level, P2 at 4 ppm [1, 4]: 6%
- % PHAKPA (F129L) Disease level, P2 at 16 ppm [1, 5]: 0%
- % PHAKPA (F129L) Disease level, P6 at 4 ppm [2, 6]: 3%
- % PHAKPA (F129L) Disease level, P6 at 16 ppm [2, 7]: 0%

Compound: CNC(=O)/C(=N/OC)c1cccc(C)c1CO/N=C(\C)c1ccc(-c2ccc(F)cc2)cc1C(F)(F)F [compound 426]
- % PHAKPA (F129L) Disease level, P2 at 4 ppm [1, 4]: 7%
- % PHAKPA (F129L) Disease level, P2 at 16 ppm [1, 5]: 1%
- % PHAKPA (F129L) Disease level, P6 at 4 ppm [2, 6]: 27%
- % PHAKPA (F129L) Disease level, P6 at 16 ppm [2, 7]: 10%

Compound: CNC(=O)/C(=N/OC)c1cccc(C)c1CO/N=C(\C)c1cc(F)ccc1F [Ex. 131]
- PHAKPA (F129L) Disease level (%), P2 at 16 ppm ([1]; 16 ppm): 0%
- % PHAKPA (F129L) Disease level, P2 at 4 ppm [1, 8]: 0%
- % PHAKPA (F129L) Disease level, P2 at 16 ppm [1, 9]: 0%
- PHAKPA (F129L) Disease level (%), P6 at 16 ppm [2, 10]: 0%
- % PHAKPA (F129L) Disease level, P6 at 4 ppm [2, 11]: 2%
- % PHAKPA (F129L) Disease level, P6 at 16 ppm [2, 12]: 0%

Compound: CO/N=C(/C(=O)OC)c1cccc(C)c1CO/N=C(\C)c1cccc(C(F)(F)F)c1 [Ex. 9]
- PHAKPA (F129L) Disease level (%) P2 at 4 ppm ([1]; Table C1, protective, inoculation 2 days after spraying, 4 ppm, % diseased leaf area on soybean): 35%
- PHAKPA (F129L) Disease level (%) P2 at 4 ppm ([1]; Table C7b, 4 ppm, untreated 92): 6%
- Fungal growth (%) PYRIOR ([3]; Table C9): 38%
- PHAKPA (F129L) Disease level (%), P6 at 16 ppm ([2]; P6 at 16 ppm, untreated 75%): 1%
- PHAKPA (F129L) Disease level (%), P6 at 16 ppm ([2]; Table C1, protective, inoculation six days after spraying, 16 ppm, % diseased leaf area on soybean): 4%

Compound: COC=C(C(=O)OC)c1cccc(C)c1CON=C(C)c1cc(F)c(F)cc1CC(F)(F)F [compound 405]
- % PHAKPA (F129L) Disease level, P2 at 4 ppm [1, 4]: 97%
- % PHAKPA (F129L) Disease level, P2 at 16 ppm [1, 5]: 27%
- % PHAKPA (F129L) Disease level, P6 at 4 ppm [2, 6]: 70%
- % PHAKPA (F129L) Disease level, P6 at 16 ppm [2, 7]: 27%

Compound: CNC(=O)/C(=N/OC)c1cccc(OC)c1CO/N=C(\C)c1cccc(C(F)(F)F)c1 [compound 461]
- % PHAKPA (F129L) Disease level, P2 at 4 ppm [1, 4]: 26%
- % PHAKPA (F129L) Disease level, P2 at 16 ppm [1, 5]: 2%
- % PHAKPA (F129L) Disease level, P6 at 4 ppm [2, 6]: 52%
- % PHAKPA (F129L) Disease level, P6 at 16 ppm [2, 7]: 6%

Compound: CO/N=C(/C(=O)OC)c1cccc(C)c1CO/N=C(\C)c1cccc(OC(F)(F)F)c1 [drawing 939, reference compound]
- Fungal growth (%) PYRIOR ([3]; Table C8a): 100%

Compound: CNC(=O)/C(=N/OC)c1cccc(C)c1CO/N=C(\C)c1ccc(OC)cc1OC(F)(F)F [compound 337]
- % PHAKPA (F129L) Disease level, P2 at 4 ppm [1, 4]: 9%
- % PHAKPA (F129L) Disease level, P2 at 16 ppm [1, 5]: 0%
- % PHAKPA (F129L) Disease level, P6 at 4 ppm [2, 6]: 13%
- % PHAKPA (F129L) Disease level, P6 at 16 ppm [2, 7]: 1%

Compound: CO/N=C(/C(=O)OC)c1cccc(C)c1CO/N=C(\C)c1ccc(-c2ccc(F)cc2)cc1C(F)(F)F [compound 425]
- % PHAKPA (F129L) Disease level, P2 at 4 ppm [1, 4]: 27%
- % PHAKPA (F129L) Disease level, P2 at 16 ppm [1, 5]: 28%
- % PHAKPA (F129L) Disease level, P6 at 4 ppm [2, 6]: 53%
- % PHAKPA (F129L) Disease level, P6 at 16 ppm [2, 7]: 40%

Compound: CNC(=O)/C(=N/OC)c1cccc(C)c1CO/N=C(\C)c1c(F)cc(Br)cc1OC(F)(F)F [compound 355]
- % PHAKPA (F129L) Disease level, P2 at 4 ppm [1, 4]: 34%
- % PHAKPA (F129L) Disease level, P2 at 16 ppm [1, 5]: 7%
- % PHAKPA (F129L) Disease level, P6 at 4 ppm [2, 6]: 48%
- % PHAKPA (F129L) Disease level, P6 at 16 ppm [2, 7]: 4%

Compound: CO/C=C(/C(=O)OC)c1cccc(C)c1CO/N=C(\C)c1ccccc1C(F)(F)F [Ex. 244]
- % PHAKPA (F129L) Disease level, P2 at 4 ppm [1, 4]: 14%
- % PHAKPA (F129L) Disease level, P2 at 16 ppm [1, 5]: 0%
- PHAKPA (F129L) Disease level (%), P2 at 16 ppm ([1]; 16 ppm): 0%
- % PHAKPA (F129L) Disease level, P6 at 4 ppm [2, 6]: 15%
- % PHAKPA (F129L) Disease level, P6 at 16 ppm [2, 7]: 2%
- PHAKPA (F129L) Disease level (%), P6 at 16 ppm [2, 10]: 2%

Compound: CNC(=O)/C(=N/OC)c1ccccc1CO/N=C(\C)c1cc(F)ccc1F [reference compound]
- PHAKPA (F129L) Disease level (%), P2 at 16 ppm ([1]; 16 ppm): 1%
- PHAKPA (F129L) Disease level (%), P6 at 16 ppm [2, 10]: 22%

Compound: CO/N=C(/C(=O)OC)c1cccc(C)c1CO/N=C(\C)c1cccc(C)c1 [Ex. 76]
- PHAKPA (F129L) Disease level (%), P6 at 16 ppm ([2]; P6 at 16 ppm, untreated 75%): 4%
- PHAKPA (F129L) Disease level (%), P6 at 16 ppm [2, 10]: 0%

Compound: COC=C(C(=O)OC)c1cccc(C)c1CON=C(C)c1ccc(F)c(F)c1OC(F)(F)F [compound 450]
- % PHAKPA (F129L) Disease level, P2 at 4 ppm [1, 4]: 3%
- % PHAKPA (F129L) Disease level, P2 at 16 ppm [1, 5]: 1%
- % PHAKPA (F129L) Disease level, P6 at 4 ppm [2, 6]: 4%
- % PHAKPA (F129L) Disease level, P6 at 16 ppm [2, 7]: 1%

Compound: CO/N=C(/C(=O)OC)c1cccc(C)c1CO/N=C(\C)c1c(F)ccc(C(F)(F)F)c1F [compound 156]
- % PHAKPA (F129L) Disease level, P2 at 4 ppm [1, 8]: 27%
- % PHAKPA (F129L) Disease level, P2 at 16 ppm [1, 9]: 0%
- % PHAKPA (F129L) Disease level, P6 at 4 ppm [2, 11]: 47%
- % PHAKPA (F129L) Disease level, P6 at 16 ppm [2, 12]: 3%

Compound: CO/N=C(/C(=O)OC)c1cccc(C)c1CO/N=C(\C)c1ccccc1F [Ex. 1, Methyl (2E)-2-[2-[[(E)-3-(2-fluorophenyl)ethylideneamino]oxymethyl]-3-methyl-phenyl]-2-methoxyimino-acetate]
- PHAKPA (F129L) Disease level (%), P2 at 16 ppm ([1]; 16 ppm): 28%
- % PHAKPA (F129L) Disease level, P2 at 4 ppm [1, 8]: 80%
- % PHAKPA (F129L) Disease level, P2 at 16 ppm [1, 9]: 27%
- PHAKPA (F129L) Disease level (%), P6 at 16 ppm [2, 10]: 47%
- % PHAKPA (F129L) Disease level, P6 at 4 ppm [2, 11]: 90%
- % PHAKPA (F129L) Disease level, P6 at 16 ppm [2, 12]: 56%

Compound: CON=C(C)c1ccc(C(C)=NOCc2c(C)cccc2C(=NOC)C(=O)OC)c(OC(F)(F)F)c1 [compound 418]
- % PHAKPA (F129L) Disease level, P2 at 4 ppm [1, 4]: 70%
- % PHAKPA (F129L) Disease level, P2 at 16 ppm [1, 5]: 33%
- % PHAKPA (F129L) Disease level, P6 at 4 ppm [2, 6]: 73%
- % PHAKPA (F129L) Disease level, P6 at 16 ppm [2, 7]: 57%

Compound: CO/C=C(/C(=O)OC)c1cccc(C)c1CO/N=C(\C)c1ccc(Cl)c(F)c1OC(F)(F)F [compound 452]
- % PHAKPA (F129L) Disease level, P2 at 4 ppm [1, 4]: 60%
- % PHAKPA (F129L) Disease level, P2 at 16 ppm [1, 5]: 6%
- % PHAKPA (F129L) Disease level, P6 at 4 ppm [2, 6]: 70%
- % PHAKPA (F129L) Disease level, P6 at 16 ppm [2, 7]: 14%

Compound: CO/C=C(/C(=O)OC)c1cccc(C)c1CO/N=C(\C)c1ccccc1OC(F)(F)F [compound 462]
- % PHAKPA (F129L) Disease level, P2 at 4 ppm [1, 4]: 37%
- % PHAKPA (F129L) Disease level, P2 at 16 ppm [1, 5]: 6%
- % PHAKPA (F129L) Disease level, P6 at 4 ppm [2, 6]: 55%
- % PHAKPA (F129L) Disease level, P6 at 16 ppm [2, 7]: 10%

Compound: CO/N=C(/C(=O)OC)c1cccc(C)c1CO/N=C(\C)c1cccc(OC(F)(F)F)c1 [Ex. 28]
- PHAKPA (F129L) Disease level (%), P2 at 16 ppm ([1]; 16 ppm): 30%
- % PHAKPA (F129L) Disease level, P2 at 16 ppm [1, 9]: 0%
- PHAKPA (F129L) Disease level (%), P6 at 16 ppm [2, 10]: 18%
- % PHAKPA (F129L) Disease level, P6 at 16 ppm [2, 12]: 0%

Compound: CO/N=C(/C(=O)OC)c1cccc(C)c1CO/N=C(\C)c1ccc(-c2ccccc2)cc1C(F)(F)F [compound 414]
- % PHAKPA (F129L) Disease level, P2 at 4 ppm [1, 4]: 53%
- % PHAKPA (F129L) Disease level, P2 at 16 ppm [1, 5]: 9%
- % PHAKPA (F129L) Disease level, P6 at 4 ppm [2, 6]: 53%
- % PHAKPA (F129L) Disease level, P6 at 16 ppm [2, 7]: 15%

Compound: CO/C=C(/C(=O)OC)c1cccc(C)c1CO/N=C(\C)c1ccc(OC)cc1C(F)(F)F [compound 464]
- % PHAKPA (F129L) Disease level, P2 at 4 ppm [1, 4]: 1%
- % PHAKPA (F129L) Disease level, P2 at 16 ppm [1, 5]: 0%
- % PHAKPA (F129L) Disease level, P6 at 4 ppm [2, 6]: 8%
- % PHAKPA (F129L) Disease level, P6 at 16 ppm [2, 7]: 0%

Compound: CNC(=O)/C(=N/OC)c1cccc(C)c1CO/N=C(\C)c1ccc(-c2ccccc2)cc1C(F)(F)F [compound 413]
- % PHAKPA (F129L) Disease level, P2 at 4 ppm [1, 4]: 40%
- % PHAKPA (F129L) Disease level, P2 at 16 ppm [1, 5]: 15%
- % PHAKPA (F129L) Disease level, P6 at 4 ppm [2, 6]: 33%
- % PHAKPA (F129L) Disease level, P6 at 16 ppm [2, 7]: 15%
